32 compounds from patent US7074785B2, “Δ1-pyrrolines used as pesticides” (Bayer Cropscience AG, priority 2001, dated 2006) can be followed below.

Like-named read-outs stand apart in the source and are kept apart here.

Data set [1] in a line: logP determination by HPLC (reversed-phase C18, EEC Directive 79/831 Annex V.A8). It is filed as physicochemical. As for the experimental part:
The logP values stated in the above tables and Preparation Examples are determined in accordance with EEC Directive 79/831 Annex V.A8 by HPLC (High Performance Liquid Chromatography) using a reversed-phase column (C 18). Temperature: 43° C.
In the acidic range at pH 2.3 the determination takes place using 0.1% aqueous phosphoric acid and acetonitrile as the mobile phases; linear gradient from 10% acetonitrile to 90% acetonitrile. Corresponding results are marked in the tables by “a)”
In the neutral range at pH 7.5 the determination takes place using 0.01 molar aqueous phosphate buffer solution and acetonitrile as the mobile phases; linear gradient from 10% acetonitrile to 90% acetonitrile. Corresponding results are marked in the tables by “b)”
Calibration is carried out using unbranched alkan-2-ones (having 3 to 16 carbon atoms), with known logP values (the logP values determined on the basis of the retention times using linear interpolation between two successive alkanones).

Data set [2] has as its system army worm (Spodoptera frugiperda) caterpillars. Put plainly: Spodoptera frugiperda test. It is filed as in vivo. The settings on record: in Brassica oleracea, 168 h.
In data set [3] the test system is greenhouse red spider mite (Tetranychus urticae). Put plainly: Tetranychus test (OP resistant/dip treatment). It is filed as in vivo. The conditions noted are these: 168 h. As for the experimental part: Tetranychus Test (OP Resistant/Dip Treatment)
Solvent: 7 parts by weight of dimethylformamide
After the desired period of time, the effect in % is determined.

For data set [4], the system named is larvae of the mustard beetle (Phaedon cochleariae). Put plainly: Phaedon larvae test. The conditions noted are these: in Brassica oleracea, 168 h.
Where [5] appears, read: reversed-phase C18 HPLC column; HPLC, acidic range pH 2.3, 0.1% aqueous phosphoric acid/acetonitrile; marked a), read-out: log P (pH 2.3).
The mark [6] stands for this setting: reversed-phase C18 HPLC column; HPLC, neutral range pH 7.5, 0.01 molar phosphate buffer/acetonitrile; marked b), read-out: log P (pH 7.5).
The mark [7] stands for this setting: 100 ppm, cabbage leaves dipped, read-out: Kill rate in % after 7 d.
Setting [8] is: 100 ppm, bean plants dipped, Tetranychus urticae OP-resistant, read-out: Kill rate in % after 7 d.
[9] abbreviates: HPLC, acidic range pH 2.3, 0.1% aqueous phosphoric acid/acetonitrile; marked a), read-out: log P (pH 2.3).
Setting [10] is: HPLC, neutral range pH 7.5, 0.01 molar phosphate buffer/acetonitrile; marked b), read-out: log P (pH 7.5).
The mark [11] stands for this setting: read-out: Kill rate in % after 7 d, 100 ppm, bean plants dipped, Tetranychus urticae OP-resistant.
Setting [12] is: read-out: Kill rate in % after 7 d, 100 ppm, cabbage leaves dipped, Phaedon cochleariae larvae.
Where [13] appears, read: read-out: Kill rate in % after 7 d, 100 ppm, cabbage leaves dipped, Spodoptera frugiperda.
The mark [14] stands for this setting: read-out: Kill rate in % after 7 d.

For `O=C(Nc1ccccc1)Nc1ccc(-c2ccc(C3CCC(c4c(F)cccc4F)=N3)cc2)cn1` (stereo not shown) [Compound 22], the chromatographic logP in data set [1] (setting [5]) is 2.71; in data set [1] (setting [6]) it was 3.98. Also, the figures for the pest or weed control at 100 ppm in data set [2] (setting [7]) and in data set [3] (setting [8]) were not below 95% and not below 85%, respectively.
`CCCCCCOC(=O)Nc1ccc(-c2ccc(C3CCC(c4c(F)cccc4F)=N3)cc2)cc1` (stereo not shown) [Compound 19]: the chromatographic logP in data set [1] (setting [9]) worked out at 4.46; in data set [1] (setting [10]) it was 5.26. Moreover, the pest or weed control at 100 ppm in data set [3] (setting [11]) and in data set [4] (setting [12]) was not below 85% each time.
For `O=C(Nc1ccc(-c2ccc(C3CCC(c4c(F)cccc4F)=N3)cc2)cc1)OCc1ccco1` (stereo not shown) [Compound 26], the results for the chromatographic logP in data set [1] (setting [9]) and in data set [1] (setting [10]) were 3.01 and 4.1, respectively. Further, the pest or weed control at 100 ppm in data set [2] (setting [13]) was not below 95%; in data set [3] (setting [11]) it was not below 85%.
Regarding `CC(C)C(C)OC(=O)Nc1ccc(-c2ccc(C3CCC(c4c(F)cccc4F)=N3)cc2)cc1` (stereo not shown) [Compound 16], the chromatographic logP turned out to be 3.82 in data set [1] (setting [9]) and 4.77 in data set [1] (setting [10]). The pest or weed control at 100 ppm in data set [4] (setting [12]) is not below 85%.
For `O=C(Nc1ccc(-c2ccc(C3CCC(c4c(F)cccc4F)=N3)cc2)cc1)OC1CCCCC1` (stereo not shown) [Compound 10], the chromatographic logP is 3.88 in data set [1] (setting [9]) and 1.68 in data set [1] (setting [10]). The pest or weed control at 100 ppm is not below 95% in data set [2] (setting [13]) and 100% in data set [4] (setting [12]).
Take `COCCOC(=O)Nc1ccc(-c2ccc(C3CCC(c4c(F)cccc4F)=N3)cc2)cc1` (stereo not shown) [Compound 31]: the chromatographic logP in data set [1] (setting [9]) worked out at 2.24; in data set [1] (setting [10]) it was 3.45. The pest or weed control at 100 ppm in data set [2] (setting [13]) is not below 95%.
As to `CN(C)CCOC(=O)Nc1ccc(-c2ccc(C3CCC(c4c(F)cccc4F)=N3)cc2)cc1` (stereo not shown) [Compound 30], the chromatographic logP in data set [1] (setting [9]) is 1.37. The results for the pest or weed control at 100 ppm in data set [2] (setting [13]) and in data set [3] (setting [11]) were not below 95% and not below 85%, respectively.
As for `CCOCCOC(=O)Nc1ccc(-c2ccc(C3CCC(c4c(F)cccc4F)=N3)cc2)cc1` (stereo not shown) [Compound 32], the chromatographic logP in data set [1] (setting [9]) worked out at 2.52; in data set [1] (setting [10]) it was 3.75. In addition, the pest or weed control at 100 ppm in data set [3] (setting [11]) and in data set [4] (setting [12]) was not below 85% each time.
Consider `CCCOC(=O)Nc1ccc(Br)cc1` [III-2, n-propyl 4-bromophenylcarbamate], for which, in data set [1] (setting [9]), the chromatographic logP was 3.12.
Same read-out and setting: then `CCCCOC(=O)N(C)c1ccc(Br)cc1` [III-3, n-butyl-4-bromophenyl(methyl)carbamate], with 3.88.
Take `CC(C)(C)COC(=O)Nc1ccc(-c2ccc(C3CCC(c4c(F)cccc4F)=N3)cc2)cc1` (stereo not shown) [Compound 23]: the chromatographic logP in data set [1] (setting [9]) came out at 3.76. Moreover, the pest or weed control at 100 ppm was not below 95% in data set [2] (setting [13]) and not below 85% in data set [3] (setting [11]).
Turning to `CCCCOC(=O)N(C)c1ccc(-c2ccc(C3CCC(c4c(F)cccc4F)=N3)cc2)cc1` (stereo not shown) [Compound 3, n-butyl 4′-[5-(2,6-difluorophenyl)-3,4-dihydro-2H-pyrrol-2-yl]-1,1′-biphenyl-4-yl(methyl)carbamate], the chromatographic logP was 3.76 in data set [1] (setting [9]) and 4.92 in data set [1] (setting [10]).
Take `O=C1OCCN1c1ccc(-c2ccc(C3CCC(c4c(F)cccc4F)=N3)cc2)cc1` (stereo not shown) [Compound 4, 3-{4′-[5-(2,6-difluorophenyl)-3,4-dihydro-2H -pyrrol-2-yl]-1,1′-biphenyl-4-yl}-1,3-oxazolidin-2-one]: the values for the chromatographic logP in data set [1] (setting [5]) and in data set [1] (setting [6]) were 2.13 and 3.28, respectively. The pest or weed control at 100 ppm in data set [2] (setting [7]) was not below 95%; in data set [3] (setting [8]) it was not below 85%.
Consider `O=C(Nc1ccc(-c2ccc(C3CCC(c4c(F)cccc4F)=N3)cc2)cc1)N1CCOCC1` (stereo not shown) [Compound 5, N-{4′-[5-(2,6-difluorophenyl)-3,4-dihydro-2H-pyrrol-2-yl]-1,1 ′-biphenyl-4-yl}-4-morpholinecarboxamide], for which the chromatographic logP in data set [1] (setting [5]) came to 1.87; in data set [1] (setting [6]), 2.96. Also, in data set [2] (setting [7]), the pest or weed control at 100 ppm was not below 95%.
As for `COC(=O)Nc1ccc(Br)cc1` [III-1, methyl 4-bromophenylcarbamate], the chromatographic logP in data set [1] (setting [9]) stood at 2.27.
For `O=C(Nc1ccc(-c2ccc(C3CCC(c4c(F)cccc4F)=N3)cc2)cc1)OCCc1ccccc1` (stereo not shown) [Compound 25], the results for the chromatographic logP in data set [1] (setting [9]) and in data set [1] (setting [10]) were 3.62 and 4.64, respectively. Further, the pest or weed control at 100 ppm in data set [2] (setting [13]) was not below 95%; in data set [4] (setting [12]), not below 85%.
With `CCCCC(CC)COCCOC(=O)Nc1ccc(-c2ccc(C3CCC(c4c(F)cccc4F)=N3)cc2)cc1` (stereo not shown) [Compound 28], the chromatographic logP in data set [1] (setting [9]) was determined as 5.13; in data set [1] (setting [10]) it was 5.97. Moreover, the pest or weed control at 100 ppm was not below 95% in data set [2] (setting [13]) and not below 85% in data set [3] (setting [11]).
For `CCCCOC(=O)Nc1ccc(-c2ccc(C3CCC(c4c(F)cccc4F)=N3)cc2)cc1` (stereo not shown) [Compound 9], the chromatographic logP in data set [1] (setting [9]) came out at 3.44; in data set [1] (setting [10]) it was 4.6. For the same compound, the pest or weed control at 100 ppm in data set [2] (setting [13]) is not below 95%; in data set [4] (setting [12]), 100%.
In the case of `O=C1OCCN1c1ccc(Br)cc1` [III-4, 3-(4-bromophenyl)-1,3-oxazolidin-2-one], in data set [1] (setting [5]), the chromatographic logP was 2.02.
For the compound `COC(=O)N(C)c1ccc(-c2ccc(C3CCC(c4c(F)cccc4F)=N3)cc2)cc1` (stereo not shown) [Compound 35], the chromatographic logP was determined as 2.58 in data set [1] (setting [9]) and 3.79 in data set [1] (setting [10]). Besides, the pest or weed control at 100 ppm in data set [3] (setting [11]) and in data set [4] (setting [12]) was not below 85% throughout.
In the case of `CCCCCOC(=O)Nc1ccc(-c2ccc(C3CCC(c4c(F)cccc4F)=N3)cc2)cc1` (stereo not shown) [Compound 18], the chromatographic logP in data set [1] (setting [9]) turned out to be 3.87; in data set [1] (setting [10]), 4.89. For the same compound, the pest or weed control at 100 ppm in data set [2] (setting [13]) is not below 95%; in data set [4] (setting [12]), not below 85%.
Regarding `O=C(Nc1ccc(Br)cc1)N1CCOCC1` [III-5, N-(4-bromophenyl)-4-morpholinecarboxamide], in data set [1] (setting [5]), the chromatographic logP is 1.75.
On to `CCCN(CCC)CCOC(=O)Nc1ccc(-c2ccc(C3CCC(c4c(F)cccc4F)=N3)cc2)cc1` (stereo not shown) [Compound 29], for which the chromatographic logP stood at 1.74 in data set [1] (setting [9]) and 5.52 in data set [1] (setting [10]). For the same compound, the pest or weed control at 100 ppm in data set [3] (setting [11]) and in data set [4] (setting [12]) was not below 85% each time.
Take `CCOC(=O)N(C)c1ccc(-c2ccc(C3CCC(c4c(F)cccc4F)=N3)cc2)cc1` (stereo not shown) [Compound 37]: the chromatographic logP is 2.92 in data set [1] (setting [9]) and 4.16 in data set [1] (setting [10]). In addition, the pest or weed control at 100 ppm in data set [2] (setting [13]) was not below 95%; in data set [4] (setting [12]), not below 85%.
`CC(OC(=O)Nc1ccc(-c2ccc(C3CCC(c4c(F)cccc4F)=N3)cc2)cc1)c1ccccc1` (stereo not shown) [Compound 20]: the chromatographic logP in data set [1] (setting [9]) was found to be 3.63. Further, the pest or weed control at 100 ppm in data set [2] (setting [13]) was not below 95%; in data set [4] (setting [12]) it was not below 85%.
With `CCCC(C)OC(=O)Nc1ccc(-c2ccc(C3CCC(c4c(F)cccc4F)=N3)cc2)cc1` (stereo not shown) [Compound 17], the chromatographic logP in data set [1] (setting [10]) came out at 4.82. Further, the pest or weed control at 100 ppm in data set [2] (setting [13]) was not below 95%; in data set [3] (setting [11]), not below 85%.
For the compound `O=C(Nc1ccc(-c2ccc(C3CCC(c4c(F)cccc4F)=N3)cc2)cc1)OCCOCCOCCCC(F)(F)C(F)(F)F` (stereo not shown) [Compound 34], the results for the chromatographic logP in data set [1] (setting [9]) and in data set [1] (setting [10]) were 3.7 and 4.73, respectively. Moreover, the pest or weed control at 100 ppm in data set [2] (setting [13]) is not below 95%; in data set [3] (setting [11]) it was not below 85%.
For `CC(C)CCOC(=O)Nc1ccc(-c2ccc(C3CCC(c4c(F)cccc4F)=N3)cc2)cc1` (stereo not shown) [Compound 21], in data set [1] (setting [9]), the chromatographic logP amounted to 3.72. Further, the pest or weed control at 100 ppm is not below 95% in data set [2] (setting [13]) and not below 85% in data set [4] (setting [12]).
With `CCCCN(CC)C(=O)Nc1ccc(-c2ccc(C3CCC(c4c(F)cccc4F)=N3)cc2)cc1` (stereo not shown) [Compound 14], the chromatographic logP in data set [1] (setting [5]) worked out at 3.18; in data set [1] (setting [6]), 4.36. Besides, the pest or weed control at 100 ppm in data set [2] (setting [7]) was not below 95%.
Take `Nc1ccc(-c2ccc(C3CCC(c4c(F)cccc4F)=N3)cc2)cc1` (stereo not shown) [VII-1, 4′-[5-(2,6-difluorophenyl)-3,4-dihydro-2H-pyrrol-2-yl]-1 ′-biphenyl-4-amine]: the chromatographic logP in data set [1] (setting [5]) was determined as 1.25.
As to `O=C(Nc1ccc(-c2ccc(C3CCC(c4c(F)cccc4F)=N3)cc2)cc1)N1CCCC1` (stereo not shown) [Compound 11], in data set [1] (setting [5]), the chromatographic logP came to 2.11. The pest or weed control at 100 ppm in data set [4] (setting [14]) is 100%.
As for `O=C(Nc1ccc(-c2ccc(C3CCC(c4c(F)cccc4F)=N3)cc2)cc1)N1CCCCC1` (stereo not shown) [Compound 12], the results for the chromatographic logP in data set [1] (setting [5]) and in data set [1] (setting [6]) were 2.53 and 3.71, respectively. The figures for the pest or weed control at 100 ppm in data set [2] (setting [7]) and in data set [4] (setting [14]) were not below 95% and 100%, respectively.
